Assay results from ChEMBL document CHEMBL4359918, “Discovery of tissue selective liver X receptor agonists for the treatment of atherosclerosis without causing hepatic lipogenesis” (Eur J Med Chem, 2019).
The source made the active and inactive calls. The rule behind the calls is not given here.

Experiments:
[1] = tested on: Mus musculus; assay: Increase in hepatic triglyceride level in high fat diet-induced C57BL/6 mouse model of hypercholesterolemia at 20 mg/kg, po administered for 12 weeks; assay type: ADME, organism-based; details: in vivo, 2016 h
[2] = tested on: Mus musculus; assay: Induction of hepatic steatosis in C57BL/6 mouse assessed as accumulation of hepatic triglyceride level at 50 mg/kg/day, ig administered for 7 days; assay type: organism-based; details: in vivo, po, 168 h
[3] = tested on: Mus musculus; assay: Induction of hepatic steatosis in C57BL/6 mouse assessed as accumulation of serum triglyceride level at 50 mg/kg/day, ig administered for 7 days; assay type: organism-based; details: in vivo, po, 168 h
[4] = Toxicity in high fat diet-induced C57BL/6 mouse model of hypercholesterolemia assessed as reduction in liver weight at 20 mg/kg, po administered for 12 weeks by H and E staining-based assay; assay type: organism-based; details: in vivo, 2016 h
[5] = tested on: RAW264.7; assay: Cytotoxicity against mouse RAW264.7 cells assessed as reduction in cell viability at 2 to 50 µM incubated for 24 hrs by MTT assay; assay type: cell-based; details: raw264.7, 24 h
[6] = species: Mus musculus; assay: Agonist activity at LXR in C57BL/6 mouse PBMC assessed as increase in ABCA1 mRNA expression at 10 uM incubated for 48 hrs by qPCR analysis
[7] = tested on: Mus musculus; assay: Anti-atherosclerotic activity in high fat diet-induced C57BL/6 mouse model of hypercholesterolemia assessed as decrease in ACC mRNA expression in liver at 10 to 40 mg/kg, po administered for 12 weeks by RT-qPCR analysis; assay type: functional, organism-based
[8] = tested on: HepG2; assay: Effect on TG accumulation in human HepG2 cells at 10 uM incubated for 24 hrs; assay type: ADME, cell-based; details: hepg2, 24 h
[9] = tested on: Mus musculus; assay: Anti-atherosclerotic activity in high fat diet-induced C57BL/6 mouse model of hypercholesterolemia assessed as increase in ABCG8 mRNA expression in ileum at 10 to 40 mg/kg, po administered for 12 weeks by RT-qPCR analysis; assay type: functional, organism-based
[10] = Agonist activity at LXR in C57BL/6 mouse PBMC assessed as increase in sREBP-1c mRNA expression at 10 uM incubated for 48 hrs by qPCR analysis
[11] = tested on: 3T3-L1; assay: Anti-adipogenic activity in mouse 3T3L1 preadipocytes assessed as decrease in triglyceride accumulation; assay type: functional, cell-based
[12] = tested on: Mus musculus; assay: Anti-atherosclerotic activity in high fat diet-induced C57BL/6 mouse model of hypercholesterolemia assessed as reduction in ALT level at 10 to 40 mg/kg, po administered for 12 weeks; assay type: functional, organism-based
[13] = tested on: Mus musculus; assay: Anti-atherosclerotic activity in high fat diet-induced C57BL/6 mouse model of hypercholesterolemia assessed as decrease in SCD1 mRNA expression in liver at 10 to 40 mg/kg, po administered for 12 weeks by RT-qPCR analysis; assay type: functional, organism-based
[14] = tested on: 3T3-L1; assay: Anti-adipogenic activity in mouse 3T3L1 preadipocytes assessed as decrease in lipid accumulation by Oil Red O staining-based microscopic analysis; assay type: functional, cell-based
[15] = tested on: Mus musculus; assay: Anti-atherosclerotic activity in high fat diet-induced C57BL/6 mouse model of hypercholesterolemia assessed as reduction in liver fat administered orally for 12 weeks by ORO staining based microscopic analysis; assay type: functional, organism-based
[16] = tested on: HepG2; assay: Lipid lowering activity in human HepG2 cells assessed as decrease in OA-induced TG accumulation at 10 uM incubated for 24 hrs; assay type: functional, cell-based
[17] = tested on: Mus musculus; assay: Anti-atherosclerotic activity in high fat diet-induced C57BL/6 mouse model of hypercholesterolemia assessed as increase in ABCG5 mRNA expression in ileum at 10 to 40 mg/kg, po administered for 12 weeks by RT-qPCR analysis; assay type: functional, organism-based
[18] = tested on: HepG2; assay: Cytotoxicity against human HepG2 cells assessed as reduction in cell viability at 2 to 50 uM incubated for 24 hrs by MTT assay; assay type: cell-based; details: hepg2, 24 h
[19] = tested on: Mus musculus; assay: Anti-atherosclerotic activity in high fat diet-induced C57BL/6 mouse model of hypercholesterolemia assessed as reduction in hepatic triglyceride level at 10 to 40 mg/kg, po administered for 12 weeks; assay type: functional, organism-based
[20] = tested on: Mus musculus; assay: Anti-atherosclerotic activity in high fat diet-induced C57BL/6 mouse model of hypercholesterolemia assessed as reduction in liver weight at 10 to 40 mg/kg, po administered for 12 weeks by H and E staining-based assay; assay type: functional, organism-based
[21] = tested on: RAW264.7; assay: Agonist activity at LXR in mouse RAW264.7 cells assessed as increase in ABCA1 mRNA expression at 10 uM incubated for 48 hrs by qPCR analysis; assay type: cell-based
[22] = tested on: Mus musculus; assay: Anti-atherosclerotic activity in high fat diet-induced C57BL/6 mouse model of hypercholesterolemia assessed as decrease in sREBP-1c mRNA expression in liver at 10 to 40 mg/kg, po administered for 12 weeks by RT-qPCR analysis; assay type: functional, organism-based
[23] = tested on: 3T3-L1; assay: Cytotoxicity against mouse 3T3L1 preadipocytes assessed as reduction in cell viability at 2 to 50 uM incubated for 24 hrs by MTT assay; assay type: cell-based; details: 3t3-l1, 24 h
[24] = tested on: RAW264.7; assay: Anti-atherosclerotic activity in mouse RAW264.7 cells assessed as inhibition of ox-LDL induced lipid accumulation at 10 uM incubated for 48 hrs by ORO staining based microscopic analysis; assay type: functional, cell-based
[25] = tested on: Mus musculus; assay: Anti-atherosclerotic activity in high fat diet-induced C57BL/6 mouse model of hypercholesterolemia assessed as increase in ABCG8 mRNA expression in liver at 10 to 40 mg/kg, po administered for 12 weeks by RT-qPCR analysis; assay type: functional, organism-based
[26] = tested on: Mus musculus; assay: Induction of hepatic steatosis in C57BL/6 mouse assessed as effect on serum LDL-C at 50 mg/kg/day, ig administered for 7 days; assay type: organism-based; details: in vivo, po, 168 h
[27] = tested on: RAW264.7; assay: Effect on LXR mRNA expression in mouse RAW264.7 cells at 10 uM incubated for 48 hrs by qPCR analysis; assay type: cell-based; details: raw264.7, 48 h
[28] = tested on: Mus musculus; assay: Anti-atherosclerotic activity in high fat diet-induced C57BL/6 mouse model of hypercholesterolemia assessed as reduction in serum total cholesterol level at 10 to 40 mg/kg, po administered for 12 weeks; assay type: functional, organism-based
[29] = Agonist activity at LXR in mouse 3T3L1 preadipocytes assessed as increase in ABCA1 mRNA expression at 10 uM by qPCR analysis; assay type: cell-based
[30] = Selectivity index, ratio of compound effect for agonist activity at human LXRalpha to compound effect for agonist activity at […]
[31] = tested on: HEK-293T; assay: Cytotoxicity against HEK293T cells assessed as reduction in cell viability at […] incubated for 24 hrs by MTT assay; assay type: cell-based; details: human
[32] = Agonist activity at LXR in mouse RAW264.7 cells assessed as increase in sREBP-1c mRNA expression at 10 uM incubated for 48 hrs by qPCR analysis; assay type: cell-based; details: raw264.7, 48 h
[33] = tested on: PBMC; assay: Anti-atherosclerotic activity in C57BL/6 mouse PBMC assessed as inhibition of ox-LDL induced lipid accumulation at 10 uM incubated for 48 hrs by ORO staining based microscopic analysis; assay type: functional, cell-based
[34] = tested on: Mus musculus; assay: Anti-atherosclerotic activity in high fat diet-induced C57BL/6 mouse model of hypercholesterolemia assessed as increase in ABCA1 mRNA expression in small intestine at 10 to 40 mg/kg, po administered for 12 weeks by RT-qPCR analysis; assay type: functional, organism-based
[35] = tested on: RAW264.7; assay: Inhibition of macrophage foam cell formation in mouse RAW264.7 cells assessed as reduction in ox-LDL induced total cholesterol level at 10 uM measured after 48 hrs; assay type: functional, cell-based
[36] = target: Liver X receptor (Homo sapiens) (UniProt Q13133+P55055); assay: Agonist activity at LXR in human HepG2 cells assessed as increase in ABCA1 mRNA expression at 10 uM incubated for 24 hrs by qPCR analysis; assay type: cell-based
[37] = target: T1, Oxysterols receptor LXR-beta (Rattus norvegicus) (UniProt Q62755); assay: Agonist activity at rat LXRbeta transfected in HEK293T cells at 10 uM incubated for 20 hrs by luciferase reporter gene assay relative to control; assay type: cell-based
T1 sequence (whole entry): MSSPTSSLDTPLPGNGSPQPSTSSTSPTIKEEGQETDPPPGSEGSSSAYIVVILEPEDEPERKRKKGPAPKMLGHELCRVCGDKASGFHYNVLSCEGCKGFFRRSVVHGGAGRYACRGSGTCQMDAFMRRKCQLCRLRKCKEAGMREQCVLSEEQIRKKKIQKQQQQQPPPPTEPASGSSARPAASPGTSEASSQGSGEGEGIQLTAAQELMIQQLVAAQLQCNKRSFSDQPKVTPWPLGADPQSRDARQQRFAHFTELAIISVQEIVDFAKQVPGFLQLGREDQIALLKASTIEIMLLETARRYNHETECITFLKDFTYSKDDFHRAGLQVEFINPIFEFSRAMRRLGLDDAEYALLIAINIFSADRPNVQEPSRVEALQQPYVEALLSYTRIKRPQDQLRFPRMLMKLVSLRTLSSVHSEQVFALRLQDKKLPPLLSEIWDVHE

[38] = target: T2, Oxysterols receptor LXR-alpha (Homo sapiens) (UniProt Q13133); assay: Agonist activity at human LXRalpha transfected in HEK293T cells at 10 uM incubated for 20 hrs in presence of LXR antagonist SR9243 by luciferase reporter gene assay relative to control; assay type: cell-based
T2 sequence (whole entry): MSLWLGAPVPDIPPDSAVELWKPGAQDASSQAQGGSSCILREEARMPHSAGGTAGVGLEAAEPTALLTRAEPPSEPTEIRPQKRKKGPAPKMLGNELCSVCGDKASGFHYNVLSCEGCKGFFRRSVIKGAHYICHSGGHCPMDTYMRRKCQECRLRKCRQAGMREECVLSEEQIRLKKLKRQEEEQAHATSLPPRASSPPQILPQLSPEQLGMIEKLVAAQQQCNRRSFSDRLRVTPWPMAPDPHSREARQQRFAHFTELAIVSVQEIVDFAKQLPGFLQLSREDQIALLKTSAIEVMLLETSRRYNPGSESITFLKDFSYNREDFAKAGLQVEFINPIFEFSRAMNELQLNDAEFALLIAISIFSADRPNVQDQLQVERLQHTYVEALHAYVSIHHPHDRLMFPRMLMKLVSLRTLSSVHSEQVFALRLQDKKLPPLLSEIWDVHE

[39] = tested on: Mus musculus; assay: Anti-atherosclerotic activity in high fat diet-induced C57BL/6 mouse model of hypercholesterolemia assessed as increase in CYP7A1 mRNA expression in liver at 10 to 40 mg/kg, po administered for 12 weeks by RT-qPCR analysis; assay type: functional, organism-based
[40] = tested on: PBMC; assay: Effect on LXR mRNA expression in C57BL/6 mouse PBMC at 10 uM incubated for 48 hrs by qPCR analysis; assay type: cell-based
[41] = target: T3, LXRalpha (Oxysterols receptor LXR-alpha) (Homo sapiens, UniProt Q13133); assay: Agonist activity at human LXRalpha transfected in HEK293T cells at 10 uM incubated for 20 hrs by luciferase reporter gene assay relative to control; assay type: cell-based; details: HEK293T cells transfected with human LXRalpha, read-out: FC
T3 sequence (Q13133 whole entry): T2 sequence (whole entry)

[42] = tested on: Mus musculus; assay: Anti-atherosclerotic activity in high fat diet-induced C57BL/6 mouse model of hypercholesterolemia assessed as increase in ABCG1 mRNA expression in small intestine at 10 to 40 mg/kg, po administered for 12 weeks by RT-qPCR analysis; assay type: functional, organism-based
[43] = tested on: Mus musculus; assay: Anti-atherosclerotic activity in high fat diet-induced C57BL/6 mouse model of hypercholesterolemia assessed as increase in ABCG5 mRNA expression in liver at 10 to 40 mg/kg, po administered for 12 weeks by RT-qPCR analysis; assay type: functional, organism-based
[44] = tested on: Mus musculus; assay: Anti-atherosclerotic activity in high fat diet-induced C57BL/6 mouse model of hypercholesterolemia assessed as reduction in hepatic total cholesterol level at 10 to 40 mg/kg, po administered for 12 weeks; assay type: functional, organism-based

Sequence of Liver X receptor (Homo sapiens) (P55055 whole entry, looked up, one chain of several): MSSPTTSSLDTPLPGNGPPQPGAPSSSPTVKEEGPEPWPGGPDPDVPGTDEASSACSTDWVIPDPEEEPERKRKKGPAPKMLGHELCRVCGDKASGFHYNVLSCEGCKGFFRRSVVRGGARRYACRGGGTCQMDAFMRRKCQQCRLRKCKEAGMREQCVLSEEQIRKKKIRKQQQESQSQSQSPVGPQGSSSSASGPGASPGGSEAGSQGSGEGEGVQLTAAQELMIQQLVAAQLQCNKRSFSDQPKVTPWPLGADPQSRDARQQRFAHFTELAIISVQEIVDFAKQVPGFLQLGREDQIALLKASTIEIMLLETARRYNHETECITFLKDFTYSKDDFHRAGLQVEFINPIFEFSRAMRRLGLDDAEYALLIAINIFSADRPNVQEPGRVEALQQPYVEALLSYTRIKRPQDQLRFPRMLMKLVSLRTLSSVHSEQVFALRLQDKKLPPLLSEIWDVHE

SMILES: O=S(=O)(c1ccccc1)N(CC(F)(F)F)c1ccc(C(O)(C(F)(F)F)C(F)(F)F)cc1 [T091317]
- Activity [1]: Toxic
- Activity [2]: Toxic
- Activity [3]: Toxic
- Activity [4]: Toxic

SMILES: CC(C)C(=O)CC[C@@H](C)[C@H]1CC[C@H]2[C@@H]3C[C@H](O)[C@H]4C[C@H](O)CC[C@]4(C)[C@H]3CC[C@]12C
- Activity [5]: Non-Toxic
- Activity [6]: Active
- Activity [7]: Active
- Activity [8]: Non-Toxic
- Activity [9]: Active
- Activity [10]: Active
- Activity [11]: inactive
- Activity [12]: Active
- Activity [13]: Active
- Activity [14]: inactive
- Activity [15]: Dose-dependent effect
- Activity [16]: Active
- Activity [17]: Active
- Activity [18]: Non-Toxic
- Activity [19]: Active
- Activity [20]: Active
- Activity [21]: Active
- Activity [3]: Non-Toxic
- Activity [22]: Active
- Activity [23]: Non-Toxic
- inhibition [24]: Active
- Activity [25]: Active
- Activity [26]: Non-Toxic
- Activity [27]: Non-Toxic
- Activity [28]: Active
- Activity [29]: Active
- Ratio [30]: 1
- Activity [31]: Non-Toxic
- Activity [32]: Not Active
- inhibition [33]: Active
- Activity [34]: Active
- inhibition [35]: Active
- Activity [36]: Active
- fold change (FC) [37]: 4.27
- Activity [38]: inactive
- Activity [39]: Active
- Activity [40]: Non-Toxic
- fold induction at 20 h, 10 µM [41]: 4.27
- Activity [42]: Active
- Activity [43]: Active
- Activity [44]: Active

SMILES: CC(=O)O[C@H]1CC[C@@]2(C)C(=CC[C@H]3[C@@H]4CC[C@H]([C@H](C)CCC(=O)C(C)C)[C@@]4(C)CC[C@@H]32)C1
- Ratio [30]: 1.14
- Activity [31]: Non-Toxic
- fold change (FC) [37]: 3
- fold induction at 20 h, 10 µM [41]: 2.63
